In article PMC10821118, “Gallium-68-Labeled KISS1-54 Peptide for Mapping KISS1 Receptor via PET: Initial Evaluation in Human Tumor Cell Lines and in Tumor-Bearing Mice” (Pharmaceuticals, 2023):
Ends that are not written are not given here.

How the values were obtained:
LNCap tumor xenograft = format: in vivo, CD1 nu/nu mice
Method: (§1) The animal studies were conducted according to the principles and procedures outlined in the Guide for the Care and Use of Laboratory Animals and were in line with the Animal Welfare Act and the directive 2010/63/EU. All mice (CD1-Foxn1nu) were purchased from Charles River (Sulzfeld, Germany) and held in the animal facility of the University Hospital of Würzburg. After their arrival, they had at least a week to get used to their new environment in the animal facility.
(§2) Then, 5 × 10^6 MDA-MB-231-cells in PBS and 5 × 10^6 LNCap cells in Matrigel Matrix® without phenol-red (Corning Life Sciences B.V., Amsterdam, The Netherlands), respectively, were inoculated subcutaneously into the front flank of eight-week-old mice. After implantation, the animals were examined and monitored daily for tumor size and well-being.
(§3) After the tumor reached a size of ≥0.5 cm in diameter, micro-PET scans were started.
(§4) For tracer injection, and during the micro-PET scans, mice were kept under 1.5% isoflurane anesthesia in 100% oxygen. Body temperature was maintained at a physiological level by using heating pads throughout the whole examination period.
(§5) Then, 3.0 ± 0.9 MBq of freshly prepared [^68Ga]KISS1-54 was injected intravenously (i.v.) into the tail vein. The first animals were scanned over 80 min directly after tracer injection to find out the optimal time point for PET acquisition. […] Therefore, data acquisition for all further mice started 60 min p.i. over 20 min.
(§6) Each acquired set of data was sorted with Fourier rebinning (FORE) to a 2D dataset of sinograms, which were reconstructed with the OSEM2D reconstruction algorithm. The software AMIDE Medical Image Data Examiner (Version 1.0.4) was used to quantify the radioactivity uptake in various regions of interest (ROIs). For the semi-quantitative analysis of the PET images, spherical ROIs were defined and used. For quantification, tumor-to-muscle, tumor-to-liver, and tumor-to-lung ratios (maximal tumor uptake/mean organ uptake) were calculated.

[1] = test system: MDA-MB-231 tumor xenograft; format: in vivo, CD1 nu/nu mice
Method: as §1, §2, §3, §4, §5, §6

[2] = biological target: KISS1 receptor (KISS1R or GPR54); conditions: affinity for KISS1R; ref [1],[2]; cited from earlier work
Method: Kisspeptins (KPs) summarize the family of KISS1 peptides, which bind at the KISS1 receptor (KISS1R or GPR54) with high affinity. Among the KPs, KISS1-54 is the best characterized representative (Ki 1.45 ± 0.1 nM for KISS1-54). The Kiss1 gene was first identified as a metastasis suppressor gene in melanoma, which suppresses metastasis without affecting the formation of primary tumor [3]. Since then, Kisspeptin was also identified in pancreatic, lung, breast, ovarian, gastric, colon, bladder, esophageal, and small intestine cancer.

[3] = Stability in injection solution by radio-HPLC; format: physicochemical; conditions: 3 h after preparation (EOS), diluted in PBS, room temperature, C18
Method: The radiochemical purity of [^68Ga]KISS1-54 was determined via high-performance liquid chromatography (HPLC). A linear gradient started from 100% H2O (0.1% TFA) to 100% acetonitrile (0.1% TFA) over 10 min, with a flow rate of 0.7 mL/min, using a Nucleosil column (100-5 C18 125 × 4.6 mm) (CS-Chromatographie, Langerwehe, Germany) and HPLC system (Knauer, Berlin, Germany). For the determination of the in vitro stability, the [^68Ga]KISS1-54 solution was diluted in phosphate-buffered saline (PBS) and stored at room temperature, and the HPLC runs were repeated 1 h and 3 h after the end of synthesis.

[4] = format: in vitro ADME, human
Method: For the determination of the […] stability, [^68Ga]KISS1-54 was incubated in fresh human serum at 37 °C for 3 h. After 0.5 h, 1 h, 2 h, and 3 h, adequate samples were taken, purified, and analyzed via HPLC under the conditions described above. […] The measured radioactivity (counts per minute) for each fraction was plotted versus time in a graph.

LNCap cells = test: In vitro cell uptake, LNCap; format: cell-based, human; conditions: 60 min co-incubation with nonradioactive KISS1-54, 1,000-fold, p = 0.047
Method: (§7) Cells were seeded in 24-well plates, and 1 h before [^68Ga]KISS1-54 uptake, the cell culture medium was replaced by PBS/5% BSA. Cells were incubated at 37 °C with [^68Ga]KISS1-54 for 5–90 min or co-incubated for 60 min with [^68Ga]KISS1-54 and KISS1-54 (Sigma Aldrich, Deisenhofen, Germany). After incubation, cells were washed three times with ice-cold PBS/5% BSA and harvested. Radioactivity was measured with a gamma-counter (Wizard 2480, Perkin-Elmer, Rodgau, Germany), and cells were subsequently counted with Countess 3 (Thermo Fisher Scientific, Waltham, MA, USA). In the case of treatment with 5-Aza-2′-Deoxycytidine (Decitabine (DC)), cells were preincubated for 72 h in cell culture medium containing 5 µM Decitabine (Merck Millipore, Darmstadt, Germany). For data analysis, the determined accumulation of [^68Ga]KISS1-54 in vitro was standardized as “uptake/100,000 cells” for a better comparison. For example, the cell number differed between pretreatment with and without Decitabine, which is due to the treatment itself, making standardization necessary.

HepG2 cells = test: In vitro cell uptake, HepG2; format: cell-based, human; conditions: 60 min co-incubation with nonradioactive KISS1-54, 1,000-fold, p = 0.02
Method: as §7

MCF-7 cells = test: In vitro cell uptake, MCF-7; format: cell-based, human; conditions: 60 min co-incubation with nonradioactive KISS1-54, 1,000-fold, p = 0.004
Method: as §7

HCT116 cells = test: In vitro cell uptake, HCT116; format: cell-based, human
Method: as §7

HeLa cells = test: In vitro cell uptake, HeLa; format: cell-based, human; conditions: 60 min co-incubation with nonradioactive KISS1-54, 1,000-fold, p < 0.001
Method: as §7

SK-BR-3 cells = test: In vitro cell uptake, SK-BR-3; format: cell-based, human; conditions: 60 min co-incubation with nonradioactive KISS1-54, 1,000-fold, p = 0.02
Method: as §7

MDA-MB-231 cells = test: In vitro cell uptake, MDA-MB-231; format: cell-based, human; conditions: 60 min co-incubation with nonradioactive KISS1-54, 1,000-fold, not significant, p = 0.08
Method: as §7

in vivo = test: in vivo; parameters: species or system CD1 nu/nu mice; conditions: mouse, iv; for tissue uptake at 1 h: CD1-Foxn1nu (CD1 nu/nu), total radioactivity
Method: as §1, §2, §3, §4, §5, §6

KISS1R in HCT116 cells = test: KISS1R expression by immunofluorescence after Decitabine pre-incubation; format: cell-based, human; conditions: HCT116 pre-incubated 72 h with 5 µM Decitabine versus untreated
Method: Cells were seeded in 24-well plates on microscope cover glasses (VWR, Ismaning, Germany). After fixation/permeabilization, cells were incubated overnight with anti-KISS1R antibody (abcam, Berlin, Germany) or without primary antibody (negative control) and then stained with Alexa-Fluor®-488 conjugated secondary antibody (abcam, Berlin, Germany). The nucleus was counterstained with 4′,6-Diamidin-2-phenylindol (DAPI) (Sigma-Aldrich, Deisenhofen, Germany). Fluorescence images were taken on an Axio Scope.A1 fluorescence microscope equipped with a camera and the ZEN2 (blue edition)-Software, version 2.0.0.0 (Zeiss, Jena, Germany). Fluorescence canals were merged using the software FIJI (Image J, version 1.53t).
Cells were seeded in 24-well plates, and 1 h before [^68Ga]KISS1-54 uptake, the cell culture medium was replaced by PBS/5% BSA. Cells were incubated at 37 °C with [^68Ga]KISS1-54 for 5–90 min or co-incubated for 60 min with [^68Ga]KISS1-54 and KISS1-54 (Sigma Aldrich, Deisenhofen, Germany). After incubation, cells were washed three times with ice-cold PBS/5% BSA and harvested. Radioactivity was measured with a gamma-counter (Wizard 2480, Perkin-Elmer, Rodgau, Germany), and cells were subsequently counted with Countess 3 (Thermo Fisher Scientific, Waltham, MA, USA). […]

O=C[C@H]([18F])[C@@H](O)[C@H](O)[C@H](O)CO [[^18F]FDG, 2-[^18F]fluoro-2-deoxyglucose, reference compound]
tumor uptake in control PET (tumor vitality) (LNCap tumor xenograft; LNCap tumor, scan the day before [^68Ga]KISS1-54): clear FDG uptake
tumor uptake in control PET (tumor vitality) ([1]; MDA-MB-231 tumor, scan the day before [^68Ga]KISS1-54): clear FDG uptake

KISS1-54: KISS1 peptide with 54 amino acids; nonradioactive blocking agent (GTSLSPPPESSGSPQQPGLSAPHSRQIPAPQGAVLVQREKDLPNYNWNSFGLRF; ends and bridges not checked; UniProt Q15726 68-121, looked up)
Ki [2]: 1.45 ± 0.1 nM

CC[C@H](C)[C@H](NC(=O)[C@H](CCC(N)=O)NC(=O)[C@H](CCCNC(=N)N)NC(=O)[C@H](CO)NC(=O)[C@H](Cc1c[nH]cn1)NC(=O)[C@@H]1CCCN1C(=O)[C@H](C)NC(=O)[C@H](CO)NC(=O)[C@H](CC(C)C)NC(=O)CNC(=O)[C@@H]1CCCN1C(=O)[C@H](CCC(N)=O)NC(=O)[C@H](CCC(N)=O)NC(=O)[C@H](CCCNC(=N)N)NC(=O)[C@H](CO)NC(=O)CNC(=O)[C@H](CO)NC(=O)[C@H](CO)NC(=O)[C@H](CCC(=O)O)NC(=O)[C@@H]1CCCN1C(=O)[C@@H]1CCCN1C(=O)[C@@H]1CCCN1C(=O)[C@H](CO)NC(=O)[C@H](CC(C)C)NC(=O)[C@H](CO)NC(=O)[C@@H](NC(=O)CNC(=O)CCC(C(=O)O)N1CCN(CC(=O)O)CCN(CC(=O)O)CC1)[C@@H](C)O)C(=O)N1CCC[C@H]1C(=O)N[C@@H](C)C(=O)N1CCC[C@H]1C(=O)N[C@@H](CCC(N)=O)C(=O)NCC(=O)N[C@@H](C)C(=O)N[C@H](C(=O)N[C@@H](CC(C)C)C(=O)N[C@H](C(=O)N[C@@H](CCC(N)=O)C(=O)N[C@@H](CCCNC(=N)N)C(=O)N[C@@H](CCC(=O)O)C(=O)N[C@@H](CCCCN)C(=O)N[C@@H](CC(=O)O)C(=O)N[C@@H](CC(C)C)C(=O)N1CCC[C@H]1C(=O)N[C@@H](CC(N)=O)C(=O)N[C@@H](Cc1ccc(O)cc1)C(=O)N[C@@H](CC(N)=O)C(=O)N[C@@H](Cc1c[nH]c2ccccc12)C(=O)N[C@@H](CC(N)=O)C(=O)N[C@@H](CO)C(=O)N[C@@H](Cc1ccccc1)C(=O)NCC(=O)N[C@@H](CC(C)C)C(=O)N[C@@H](CCCNC(=N)N)C(=O)N[C@@H](Cc1ccccc1)C(N)=O)C(C)C)C(C)C (some centres unmarked) [[^68Ga]KISS1-54, metal not drawn]
radiochemical purity in injection solution [3]: > 99%
radiochemical purity after incubation in human serum, 1 h [4]: 98.0%
uptake with KISS1-54 co-incubation, relative to control without blocking (LNCap cells): 50%
uptake with KISS1-54 co-incubation, relative to control without blocking (HepG2 cells): 46%
uptake with KISS1-54 co-incubation, relative to control without blocking (MCF-7 cells): 47%
increased uptake after Decitabine treatment, with KISS1-54 co-incubation (HCT116 cells; DC-treated HCT116, 60 min co-incubation with KISS1-54): could be blocked
uptake in Decitabine-pre-incubated HCT116 versus untreated cells (HCT116 cells; HCT116, 72 h pre-incubation with 5 µM Decitabine): significantly increased
uptake with KISS1-54 co-incubation, relative to control without blocking (HCT116 cells; HCT116, 60 min co-incubation with nonradioactive KISS1-54, 1,000-fold, not significant, p = 0.07): 76%
uptake with KISS1-54 co-incubation, relative to control without blocking (HeLa cells): 40%
uptake with KISS1-54 co-incubation, relative to control without blocking (SK-BR-3 cells): 46%
uptake with KISS1-54 co-incubation, relative to control without blocking (MDA-MB-231 cells): 65%
tumor uptake (LNCap tumor xenograft; LNCap tumor, 60 min p.i., i.v., µ-PET, mean ± SD, n = 8): 0.9 ± 0.3 % ID/g
tumor visualisation in PET (LNCap tumor xenograft; LNCap xenograft, n = 8, visual inspection): clearly delineated from the surrounding tissue
reduction of tumor uptake by co-injection of KISS1-54 (LNCap tumor xenograft; LNCap-bearing mice, nonradioactive KISS1-54 in 100-fold excess): 26 ± 5%
tumor-to-muscle ratio (LNCap tumor xenograft; LNCap, maximal tumor uptake/mean organ uptake, 60 min p.i.): 2.0 ± 0.3
tumor-to-muscle ratio ([1]; MDA-MB-231, maximal tumor uptake/mean organ uptake, 60 min p.i.): 1.4 ± 0.4
tumor uptake ([1]; MDA-MB-231 tumor, 60 min p.i., i.v., µ-PET, mean ± SD, n = 10): 0.7 ± 0.3 % ID/g
tumor visualisation in PET ([1]; MDA-MB-231 tumor, n = 10, visual inspection): no significant uptake
tissue uptake at 1 h (in vivo; tracer accumulation in brain): ~0.2 %ID/g
tissue uptake at 1 h (in vivo; tracer accumulation in liver): ~0.8 %ID/g
tissue uptake at 1 h (in vivo; tracer accumulation in muscle): ~0.5 %ID/g
clearance (in vivo): rapid renal tracer clearance during the first few minutes

Nc1ncn([C@H]2C[C@H](O)[C@@H](CO)O2)c(=O)n1 [Decitabine, 5-Aza-2′-Deoxycytidine]
KISS1R level by immunofluorescence (KISS1R in HCT116 cells): increase in the KISS1R level
